Measurements reported in patent publication US20060110803A1 (Crucell Holland B.V., priority 2003, published 2006).

Assays:
[1] = tested on: antibodies in rabbit serum obtained by immunizing a rabbit with the SARS-CoV strain Frankfurt 1; assay type: binding
[2] = tested on: antibodies in sera of individuals which have been and/or are infected by SARS-CoV (SARS-green, SARS-yellow, 1a, 1b, 2, 6, 37, 62, London); assay type: binding, human
[3] = tested on: antibodies in control sera (pooled serum of 10 healthy LUMC hospital workers; commercial negative donor pooled serum); assay type: binding, human

Sequence | recognition by rabbit serum [1] | recognition by sera of SARS-CoV infected individuals, looped/cyclic form [2] | other results
ALGKLQDVVNQNAQA [SEQ ID NO:954] | recognized by the rabbit serum | recognized in looped/cyclic form | 
CDNPFFAVSKPMGTQ [SEQ ID NO:172] | recognized by the rabbit serum |  | 
CTTFDDVQAPNYTQH [SEQ ID NO:58] | recognized by the rabbit serum |  | 
DDVQAPNYTQHTSSM [SEQ ID NO:62] | recognized by the rabbit serum |  | 
DFTDSVRDPKTSEIL [SEQ ID NO:585] | recognized by the rabbit serum |  | 
DNPFFAVSKPMGTQT [SEQ ID NO:173] | recognized by the rabbit serum |  | 
DRCTTFDDVQAPNYT [SEQ ID NO:56] | recognized by the rabbit serum |  | 
DSVRDPKTSEILDIS [SEQ ID NO:588] | recognized by the rabbit serum |  | 
DVQAPNYTQHTSSMR [SEQ ID NO:63] | recognized by the rabbit serum |  | 
FDDVQAPNYTQHTSS [SEQ ID NO:61] | recognized by the rabbit serum |  | 
FMLKYDENGTITDAV [SEQ ID NO:290] | recognized by the rabbit serum |  | 
FTDSVRDPKTSEILD [SEQ ID NO:586] | recognized by the rabbit serum |  | 
GIGYQPYRVVVLSFE [SEQ ID NO:516] | recognized by the rabbit serum |  | 
GKLQDVVNQNAQALN [SEQ ID NO:956] | recognized by the rabbit serum | recognized in looped/cyclic form | 
GYHLMSFPQAAPHGVVFLHVTYVPSQERNFTTAPAICHEGKAYFPREG [SEQ ID NO:1247] |  |  | recognition by control sera (domains homologous with OC43 spike) [3]: recognition by control sera derived from individuals which have not been infected by SARS-CoV; recognition by sera of SARS-CoV infected individuals (domains homologous with OC43 spike) [2]: recognition by sera derived from individuals which have been and/or are still infected by SARS-CoV
GYQPYRVVVLSFELL [SEQ ID NO:518] | recognized by the rabbit serum |  | 
IGYQPYRVVVLSFEL [SEQ ID NO:517] | recognized by the rabbit serum |  | 
KLQDVVNQNAQALNT [SEQ ID NO:957] | recognized by the rabbit serum | recognized in looped/cyclic form | 
KPTKRSFIEDLLF [SEQ ID NO:1244] |  |  | recognition by control sera (domains homologous with OC43 spike) [3]: recognition by control sera derived from individuals which have not been infected by SARS-CoV; recognition by sera of SARS-CoV infected individuals (domains homologous with OC43 spike) [2]: recognition by sera derived from individuals which have been and/or are still infected by SARS-CoV
KYDENGTITDAVDCS [SEQ ID NO:293] | recognized by the rabbit serum |  | 

Sequence | recognition by rabbit serum [1] | recognition by sera of SARS-CoV infected individuals, looped/cyclic form [2] | other results
LDRCTTFDDVQAPNY [SEQ ID NO:55] | recognized by the rabbit serum |  | 
LGKLQDVVNQNAQAL [SEQ ID NO:955] | recognized by the rabbit serum | recognized in looped/cyclic form | 
LKYDENGTITDAVDC [SEQ ID NO:292] | recognized by the rabbit serum |  | 
MLKYDENGTITDAVD [SEQ ID NO:291] | recognized by the rabbit serum |  | 
NPFFAVSKPMGTQTH [SEQ ID NO:174] | recognized by the rabbit serum |  | 
PTTFMLKYDENGTIT [SEQ ID NO:287] | recognized by the rabbit serum |  | 
QAPNYTQHTSSMRGV [SEQ ID NO:65] | recognized by the rabbit serum |  | 
RCTTFDDVQAPNYTQ [SEQ ID NO:57] | recognized by the rabbit serum |  | 
SDFTDSVRDPKTSEI [SEQ ID NO:584] | recognized by the rabbit serum |  | 
STALGKLQDVVNQNA [SEQ ID NO:952] | recognized by the rabbit serum |  | 
TALGKLQDVVNQNAQ [SEQ ID NO:953] | recognized by the rabbit serum |  | 
TDSVRDPKTSEILDI [SEQ ID NO:587] | recognized by the rabbit serum |  | 
TFDDVQAPNYTQHTS [SEQ ID NO:60] | recognized by the rabbit serum |  | 
TFMLKYDENGTITDA [SEQ ID NO:289] | recognized by the rabbit serum |  | 
TSSMRGVYYPDEIFR [SEQ ID NO:73] |  | recognized in looped/cyclic form | 
TSTALGKLQDVVNQN [SEQ ID NO:951] | recognized by the rabbit serum |  | 
TSVDCNMYICGDSTE [SEQ ID NO:744] |  |  | recognition by sera of SARS-CoV infected individuals, linear form [2]: recognized in linear form
TTEVMPVSMAKTSVD [SEQ ID NO:733] |  | recognized in looped/cyclic form | 
TTFDDVQAPNYTQHT [SEQ ID NO:59] | recognized by the rabbit serum |  | 
TTFMLKYDENGTITD [SEQ ID NO:288] | recognized by the rabbit serum |  | 

Sequence | recognition by rabbit serum [1] | recognition by sera of SARS-CoV infected individuals, looped/cyclic form [2] | other results
TTSTALGKLQDVVNQ [SEQ ID NO:950] | recognized by the rabbit serum | recognized in looped/cyclic form | 
TTTSTALGKLQDVVN [SEQ ID NO:949] |  | recognized in looped/cyclic form | 
TVYDPLQPELDSFKE [SEQ ID NO:1134] |  | recognized in looped/cyclic form | 
VAKNLNESLIDLQEL [SEQ ID NO:1185] |  | recognized in looped/cyclic form | 
VDCNMYICGDSTECA [SEQ ID NO:746] |  |  | recognition by sera of SARS-CoV infected individuals, linear form [2]: recognized in linear form
VLYENQKQIANQFNKAISQIQ [SEQ ID NO:1245] |  |  | recognition by control sera (domains homologous with OC43 spike) [3]: recognition by control sera derived from individuals which have not been infected by SARS-CoV; recognition by sera of SARS-CoV infected individuals (domains homologous with OC43 spike) [2]: recognition by sera derived from individuals which have been and/or are still infected by SARS-CoV
VNQNAQALNTLVKQL [SEQ ID NO:962] |  | recognized in looped/cyclic form | 
VPFSPDGKPCTPPAL [SEQ ID NO:486] |  |  | recognition by sera of SARS-CoV infected individuals, linear form [2]: recognized in linear form
VQAPNYTQHTSSMRG [SEQ ID NO:64] | recognized by the rabbit serum |  | 
VSGTATAGWTFGAGA [SEQ ID NO:888] |  |  | recognition by sera of SARS-CoV infected individuals, linear form [2]: recognized in linear form
VVNQNAQALNTLVKQ [SEQ ID NO:961] |  | recognized in looped/cyclic form | 
VWLGFIAGLIAIVMV [SEQ ID NO:1212] |  | recognized in looped/cyclic form | 
VYDPLQPELDSFKEE [SEQ ID NO:1135] |  | recognized in looped/cyclic form | 
VYYPDEIFRSDTLYL [SEQ ID NO:79] |  | recognized in looped/cyclic form | 
WLGFIAGLIAIVMVT [SEQ ID NO:1213] |  | recognized in looped/cyclic form | 
WYVWLGFIAGLIAIV [SEQ ID NO:1210] |  | recognized in looped/cyclic form | 
YDPLQPELDSFKEEL [SEQ ID NO:1136] |  | recognized in looped/cyclic form | 
YFKNHTSPDVDLGDI [SEQ ID NO:1151] |  | recognized in looped/cyclic form | 
YICGDSTECANLLLQ [SEQ ID NO:751] |  |  | recognition by sera of SARS-CoV infected individuals, linear form [2]: recognized in linear form
YVWLGFIAGLIAIVM [SEQ ID NO:1211] |  | recognized in looped/cyclic form | 
